According to the supplement of paper PMC11061612:

Tests used:
[1] = system: OCI-AML3 (Acute Myeloid Leukemia); experiment: Bliss excess, mean over the matrix (fraction); higher = more synergy
How it was run: (§1)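 After 24 hours at 37°C and 5% CO2 in 1536-well plates, cells in DMEM/F12 or RPMI plus 10% FBS received two-drug dose matrices for 72 hours. Viability came from CellTiter-Glo 2.0 luminescence and was scaled as inhibition, anchored at 0 by vehicle wells and at 1 by blank wells. Combination Emax is taken as the second-highest inhibition in the matrix, and Bliss excess as the observed combination effect less EA + EB − EA·EB, with EA and EB the single-agent effects.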

M059J (Glioblastoma) = experiment: as above
How it was run: as §1

[2] = system: PC-3 (Prostate Carcinoma); experiment: as above
How it was run: as §1

[3] = system: OCI-AML3 (Acute Myeloid Leukemia); experiment: combination Emax (second highest fraction inhibited in the dose matrix, 72 h); higher = more inhibition; extreme values may be limits of the assay
How it was run: as §1
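Throughout, for Bliss excess, mean over the matrix: after 72 h of two-drug dosing.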

Compound `Cn1cnc2c(F)c(Nc3ccc(Br)cc3Cl)c(C(=O)NOCCO)cc21` [Selumetinib] + CCN(CCO)CCCOc1ccc2c(Nc3cc(CC(=O)Nc4cccc(F)c4)[nH]n3)ncnc2c1 [AZD2811] (first compound max 10 µM, 7x7, partner max 1 µM) has a Bliss excess [1] of 0.0086, a Bliss excess (M059J (Glioblastoma)) of -0.033 and a Bliss excess [2] of -0.057. The “combination Emax” value [3] was 0.949.

Work on `COc1cc2ncnc(Nc3ccc(F)c(Cl)c3)c2cc1OCCCN1CCOCC1` [Gefitinib] + CC(C)n1c(=O)n(C)c2cnc3cc(F)c(-c4ccc(OCCCN5CCCCC5)nc4)cc3c21 [AZD1390] (first compound max 10 µM, 7x7, partner max 0.3 µM) yielded a Bliss excess [1] of -0.0457, a Bliss excess (M059J (Glioblastoma)) of -0.0325 and a Bliss excess [2] of -0.0643. The “combination Emax” value [3] was 0.059.

`CC(=O)c1c(C)c2cnc(Nc3ccc(N4CCNCC4)cn3)nc2n(C2CCCC2)c1=O` [Palbociclib] + Cn1cnc2c(F)c(Nc3ccc(Br)cc3Cl)c(C(=O)NOCCO)cc21 [Selumetinib] (first compound max 10 µM, 7x7, partner max 10 µM) showed a Bliss excess [1] of 0.0289, a Bliss excess (M059J (Glioblastoma)) of -0.0441 and a Bliss excess [2] of -0.0627. The “combination Emax” value [3] was 0.935.

In the case of `NC1(C(=O)N[C@@H](CCO)c2ccc(Cl)cc2)CCN(c2ncnc3[nH]ccc23)CC1` [Capivasertib] + Cn1cnc2c(F)c(Nc3ccc(Br)cc3Cl)c(C(=O)NOCCO)cc21 [Selumetinib] (first compound max 10 µM, 7x7, partner max 10 µM), the Bliss excess [1] is reported as -0.0291, the Bliss excess (M059J (Glioblastoma)) is reported as -0.0162 and the Bliss excess [2] is reported as -0.0419. The “combination Emax” value [3] was 0.918.

Work on `Cn1cnc2c(F)c(Nc3ccc(Br)cc3Cl)c(C(=O)NOCCO)cc21` [Selumetinib] + C[C@@H]1COCCN1C2=NC(=NC(=C2)C3(CC3)[S@](=N)(=O)C)C4=C5C=CNC5=NC=C4 [AZD6738] (first compound max 10 µM, 7x7, partner max 10 µM) yielded a Bliss excess [1] of -0.0941, a Bliss excess (M059J (Glioblastoma)) of -0.056 and a Bliss excess [2] of -0.036. For the same compound, the “combination Emax” value [3] was 0.943.

`NC1(C(=O)N[C@@H](CCO)c2ccc(Cl)cc2)CCN(c2ncnc3[nH]ccc23)CC1` [Capivasertib] + CCN(CCO)CCCOc1ccc2c(Nc3cc(CC(=O)Nc4cccc(F)c4)[nH]n3)ncnc2c1 [AZD2811] (first compound max 10 µM, 7x7, partner max 1 µM) showed a Bliss excess [1] of -0.095, a Bliss excess (M059J (Glioblastoma)) of -0.0328 and a Bliss excess [2] of 0.0151. For the same compound, the “combination Emax” value [3] was 0.585.

With `COc1nnc2ccc(N3CCC(c4ccc(OCCN5CCN(C)C(=O)[C@H]5C)cc4)CC3)nn12` [AZD5153] + CC1(C)CCC(CN2CCN(c3ccc(C(=O)NS(=O)(=O)c4ccc(NCC5CCOCC5)c([N+](=O)[O-])c4)c(Oc4cnc5[nH]ccc5c4)c3)CC2)=C(c2ccc(Cl)cc2)C1 [Venetoclax] (first compound max 1 µM, 7x7, partner max 1 µM) the Bliss excess [1] was -0.052, the Bliss excess (M059J (Glioblastoma)) was -0.0124 and the Bliss excess [2] was -0.109. For the same compound, the “combination Emax” value [3] was 1.

For `COc1nnc2ccc(N3CCC(c4ccc(OCCN5CCN(C)C(=O)[C@H]5C)cc4)CC3)nn12` [AZD5153] + Cc1c2c(nn1C)CSCc1cc(n(C)n1)CSc1cc(c3ccccc3c1)OCCCc1c(C(=O)O)n(C)c3c-2c(Cl)ccc13 [AZD5991] (first compound max 1 µM, 7x7, partner max 1 µM), the Bliss excess [1] was -0.0565, the Bliss excess (M059J (Glioblastoma)) was -0.0072 and the Bliss excess [2] was -0.054. The “combination Emax” value [3] was 1.

In the case of `CS(=O)(=O)CCNCc1ccc(-c2ccc3ncnc(Nc4ccc(OCc5cccc(F)c5)c(Cl)c4)c3c2)o1` [Lapatinib] + C[C@@H](Oc1cc(-c2cnn(C3CCNCC3)c2)cnc1N)c1c(Cl)ccc(F)c1Cl [Crizotinib] (first compound max 10 µM, 7x7, partner max 10 µM), the Bliss excess [1] is reported as -0.0235, the Bliss excess (M059J (Glioblastoma)) is reported as -0.0733 and the Bliss excess [2] is reported as -0.0174. For the same compound, the “combination Emax” value [3] was 0.846.

`C[C@@H](c1ccc2nccn2c1)n1nnc2ncc(-c3cnn(C)c3)nc21` [Savolitinib] + CC1(C)CCC(CN2CCN(c3ccc(C(=O)NS(=O)(=O)c4ccc(NCC5CCOCC5)c([N+](=O)[O-])c4)c(Oc4cnc5[nH]ccc5c4)c3)CC2)=C(c2ccc(Cl)cc2)C1 [Venetoclax] (first compound max 1 µM, 7x7, partner max 1 µM) showed a Bliss excess [1] of -0.0358, a Bliss excess (M059J (Glioblastoma)) of -0.0321 and a Bliss excess [2] of -0.0806. For the same compound, the “combination Emax” value [3] was 0.154.

In the case of `CS(=O)(=O)CCNCc1ccc(-c2ccc3ncnc(Nc4ccc(OCc5cccc(F)c5)c(Cl)c4)c3c2)o1` [Lapatinib] + Cn1cnc2c(F)c(Nc3ccc(Br)cc3Cl)c(C(=O)NOCCO)cc21 [Selumetinib] (first compound max 10 µM, 7x7, partner max 10 µM), the Bliss excess [1] is reported as -0.0562, the Bliss excess (M059J (Glioblastoma)) is reported as -0.0403 and the “combination Emax” value [3] is reported as 0.879.
